Assay results reported in patent US20250177340A1, “Tartaric Acid Analogs and Uses Thereof” (Lapix Therapeutics, Inc., priority 2021, published 2025).

Legend:
[1] = tested on: KLRG-1, CTLA-4, TIM-3, PD-1, IFNγ/Granzyme B, FoxP3; experiment: Ex vivo flow cytometry of splenocytes after seven doses, murine melanoma model (Example 13); format: in vivo, mice; settings: 7 doses, Compound B 4 mg/mouse PO QD, Compound C 2.5 mg/mouse IV QD; for inhibition of CTLA-4 as compared to control / inhibition of KLGR-1 as compared to control / inhibition of PD-1 as compared to control / inhibition of TIM-3 as compared to control: CD8+ splenocytes, one mouse per group
Description: This study was designed to evaluate the effects of Compound B and Compound C on tumor growth and the overall survival of animals implanted SC with 10^5 melanoma cells. Furthermore, ex vivo analysis of splenocytes at the end of dosing was used to evaluate change in the T-cell population and function. FIG. 8A is a diagram of the study design.
(§1) Animals were housed four per cage and had access to food and water ad libitum. Compound B was dissolved in sterile PBS, and pH was adjusted to approximately 7.5. Compound C was first dissolved in DMSO before diluting in sterile PBS. Sterile PBS was used as a control. Compound B was dosed at 4 mg/mouse PO QD. This dose was expected to result in an exposure equivalent to a 1 mg/mouse IV dose. Compound C was dosed at 2.5 mg/mouse IV.
(§2) B16F10 melanoma cells were grown in RPMI 1640 media supplemented with 10% FBS and antibiotics (penicillin/streptomycin) using T75 flasks. When cells reached 70-80% confluency, they were treated with 3 ml of 0.25% trypsin/EDTA. Detached cells were harvested. A single-cell suspension was prepared in PBS. A dorsal SC injection of 10^5 cells in mice marked day 0 of the experiment. Animals were monitored daily, and tumors were measured twice a week.
For tumor growth inhibition, animals were divided into 3 groups. The control group received an IV injection of PBS to match the start time, dosing volume, and dosing frequency of the Compound C treatment group. The treatment group received 100 μl of 4 mg/mouse PO QD of Compound B for 7 days starting at day 7 after tumor implantation, or 2.5 mg/mouse IV QD of Compound C. The endpoint was reached when the tumor reached 1 cm^3. Tumor volume was calculated using the following formula: […]
On day 14, one mouse from each group was sacrificed for ex vivo analysis. One animal with an average tumor size was selected from the control group and the Compound B treatment group. Since no animals in the Compound C treatment group had any visible tumors by day 14, one mouse was selected at random from the Compound C treatment group.
Spleens were collected and a single-cell suspension was prepared for cellular phenotyping by flow cytometry. Cells were stained and gated for CD8. IFNγ, Granzyme B (GzmB), KLRG-1, CTLA-4, TIM-3, and PD-1 expression was evaluated. Cells gated for CD4 were evaluated for FoxP3 expression.

[2] = tested on: murine CD8+ T-cells; experiment: Murine CD8+ T-cell proliferation concentration-response (CFSE), Example 7; format: cell-based, C57BL/6 mice; settings: for CD8+ T-cell proliferation: 0.001-30 mM, absence of PS, low dose ConA; for model estimated EC80, CD8+ T-cell proliferation: in the presence of 0.1 mM PS, log-logistic model; for reversal of suppressive effects of PS on T-cell proliferation: increasing doses, 0.1 mM PS liposomes
From the text: In this study, the effects of increasing doses of compound B and compound C on proliferation (CFSE staining), activation (Granzyme B and IFN-γ), and checkpoint modulation (PD1 and TIM3) of murine CD8+ T-cells in the presence and absence of phosphatidylserine (PS) were explored.
Preparation of test materials: 30:70 PS:DMPC liposomes were synthesized in PBS. […] Compound C was first dissolved in a small volume of DMSO before diluting to the final desired concentration.
Tissue culture and dosing: Splenocytes of C57BL/6 mice were stained with CFSE and prepared, cultured, and dosed. Cells were seeded at 4×10^5 cells/well.
Controls: Two controls were used. A negative control dosed with 10 ng/ml IL-2 was used, and a positive control dosed with 20 μg/ml ConA and 10 ng/ml IL-2 was used.
Treatment: After ConA stimulation (10 μg/ml), cells were dosed with log 3 dilution of compound B or compound C to cover a range from 1×10^−3 to 30 mM in duplicates with or without 0.1 mM PS:DMPC liposomes. All wells were dosed with 10 ng/ml of IL-2.
Flow cytometer: Flow cytometer analysis was performed to assess cell proliferation by CFSE, activation by double staining for Granzyme B (GzmB) and IFN-γ, checkpoint modulation by double staining for PD-1 and TIM3.
Exposure-response analysis: Change from baseline was calculated for each marker as follows:
Concentration versus change was fitted to an appropriate three-, four- or five-parameter log-logistic model using “dre” package in “R.”
The fold change from baseline of CD8+ T-cells proliferation as a function of increasing doses of compound B was calculated using equation 1, where ResponseControl was the proliferation of cells treated with IL-2 alone and Responsetreatment was the proliferation at each dose of compound B. The baseline PS response was calculated using the same equation where Responsetreatment was the proliferation of cells treated with 0.1 mM PS.

[3] = Body weight change in murine melanoma model (Example 13); format: in vivo, mice; settings: Compound B 4 mg/mouse PO QD x7, Compound C 2.5 mg/mouse IV QD
Description: as §1, §2

[4] = tested on: Granzyme B and IFN-γ; experiment: Dose-response of GranzymeB/IFN-γ double positivity in murine CD8+ T-cells, Example 9; format: cell-based, C57BL/6 mice; settings: Mus musculus, T-cell; for Emax: FIG. 4, 5-parameter fit, read-out: maximal response (GzmB/IFN-γ double positive CD8+ T-cells)
Description: A dose-response analysis of compounds B-E in murine CD8+ T-cells was conducted to evaluate the effect of dose on GranzymeB/IFN-γ double positivity.
Compound C, D and E were first dissolved in a small volume of DMSO before diluting to the final desired concentration.
Splenocytes from naïve C57BL/6 mice were stained with CFSE, prepared, cultured, and dosed. Cells were seeded at 2×10^5 cells/well. Negative control was dosed with 10 ng/ml IL-2. After ConA stimulation (10 μg/ml), cells were dosed with log 3 dilution of each compound from 3×10^−9 to 30 µM in triplicates. All wells were dosed with 10 ng/ml of IL-2.
Flow cytometer analysis was performed to assess percent CD8+ T-cells and percent activation by double staining for Granzyme B (GzmB) and IFN-γ as described in Example 7. Concentration versus response curve was fitted to a 4- or 5-parameter log-logistic model using the “dre” package in “R”. Both EC50 and EC90 were obtained by model fitting.

[5] = tested on: murine CD8+ T cells; experiment: Murine CD8+ T-cell proliferation (CFSE), Example 6; format: cell-based, C57BL/6 mice; settings: 30 mM, ConA 10 μg/ml
Description: Preparation of test materials: TTA, compound A and compound B were formulated in RPMI media under aseptic conditions. The pH was adjusted to approximately 7.5 before dosing cells.
Tissue culture and dosing: Splenocytes of C57BL/6 mice were stained with CFSE and prepared, cultured, and dosed. Cells were seeded at 1×10^5 cells/well in a 96-well round-bottomed plate.
Controls: Two controls were used. A negative control dosed with 10 ng/ml IL2 was used, and a positive control dosed with 20 μg/ml ConA and 10 ng/ml IL2 was used.
Treatment: After ConA stimulation (10 μg/ml), cells were dosed with 30 mM compound A, B or C with or without 0.1 mM 30:70 PS:DMPC liposomes. All wells were dosed with 10 ng/ml of IL-2.

| SMILES | decrease in FoxP3 positive CD4+ T-cells compared to placebo [1] | increase in GrzmB/INFγ double-positive CD8+ T-cells compared to placebo [1] | inhibition of CTLA-4 as compared to control [1] | inhibition of KLGR-1 as compared to control [1] | inhibition of PD-1 as compared to control [1] | inhibition of TIM-3 as compared to control [1] | CD8+ T-cell proliferation [2] | target concentration considered an effective dose ([2]; based on Example 7 analysis) | model estimated EC80, CD8+ T-cell proliferation [2] | reversal of suppressive effects of PS on T-cell proliferation [2] | greatest measured weight loss [3] | EC50 ([4]; 4-parameter model) | EC90 ([4]; 4-parameter model) | EC50 ([4]; 5-parameter model) | EC90 ([4]; 5-parameter model) | Emax [4] | percent of CD8+ T-cell proliferation ([5]; in absence of PS) | doses at which proliferation overlapped with that in absence of PS ([2]; 0.1 mM PS) | percent of CD8+ T-cell proliferation ([5]; in the presence of 0.1 mM PS) |
| --- | --- | --- | --- | --- | --- | --- | --- | --- | --- | --- | --- | --- | --- | --- | --- | --- | --- | --- | --- |
| O=C(O)[C@H](O)[C@@H](O)C(=O)OCCCc1ccccc1 [Compound B, (2R,3R)-2,3-dihydroxy-4-oxo-4-(3-phenylpropoxy)butanoic acid] | 1.5% | 25% | 42% | 55% | 13% | 63% | robust proliferation | 0.1 mM | 139000 nM | partially reversed | 3% | 9.8 nM | 950 nM | 11 nM | 3000 nM | ~60% | 78.3% | – | – |
| O=C(O)[C@H](O)[C@@H](O)C(=O)OCCC(c1ccccc1)c1ccccc1 [Compound C, (2R,3R)-4-(3,3-diphenylpropoxy)-2,3-dihydroxy-4-oxobutanoic acid] | 59% | 62% | 77% | 70% | 70% | 71% | robust proliferation | – | 14600 nM | completely reversed | 1.5% | 43 nM | 29000 nM | 42 nM | 28000 nM | ~60% | 84.5% | greater than 0.03 mM | 55.5% |
